# From US4260682A, “High sensitivity assays for angiotensin converting enzyme” (priority 1979, dated 1981)
# Peptide text beside a SMILES is read from it. * marks the point of attachment. Bz = O=C(c1ccccc1)*
# Biological target: T1, Guinea pig urinary ACE (Cavia porcellus, UniProt H0UWL7)
# T1 sequence (H0UWL7 33-1302): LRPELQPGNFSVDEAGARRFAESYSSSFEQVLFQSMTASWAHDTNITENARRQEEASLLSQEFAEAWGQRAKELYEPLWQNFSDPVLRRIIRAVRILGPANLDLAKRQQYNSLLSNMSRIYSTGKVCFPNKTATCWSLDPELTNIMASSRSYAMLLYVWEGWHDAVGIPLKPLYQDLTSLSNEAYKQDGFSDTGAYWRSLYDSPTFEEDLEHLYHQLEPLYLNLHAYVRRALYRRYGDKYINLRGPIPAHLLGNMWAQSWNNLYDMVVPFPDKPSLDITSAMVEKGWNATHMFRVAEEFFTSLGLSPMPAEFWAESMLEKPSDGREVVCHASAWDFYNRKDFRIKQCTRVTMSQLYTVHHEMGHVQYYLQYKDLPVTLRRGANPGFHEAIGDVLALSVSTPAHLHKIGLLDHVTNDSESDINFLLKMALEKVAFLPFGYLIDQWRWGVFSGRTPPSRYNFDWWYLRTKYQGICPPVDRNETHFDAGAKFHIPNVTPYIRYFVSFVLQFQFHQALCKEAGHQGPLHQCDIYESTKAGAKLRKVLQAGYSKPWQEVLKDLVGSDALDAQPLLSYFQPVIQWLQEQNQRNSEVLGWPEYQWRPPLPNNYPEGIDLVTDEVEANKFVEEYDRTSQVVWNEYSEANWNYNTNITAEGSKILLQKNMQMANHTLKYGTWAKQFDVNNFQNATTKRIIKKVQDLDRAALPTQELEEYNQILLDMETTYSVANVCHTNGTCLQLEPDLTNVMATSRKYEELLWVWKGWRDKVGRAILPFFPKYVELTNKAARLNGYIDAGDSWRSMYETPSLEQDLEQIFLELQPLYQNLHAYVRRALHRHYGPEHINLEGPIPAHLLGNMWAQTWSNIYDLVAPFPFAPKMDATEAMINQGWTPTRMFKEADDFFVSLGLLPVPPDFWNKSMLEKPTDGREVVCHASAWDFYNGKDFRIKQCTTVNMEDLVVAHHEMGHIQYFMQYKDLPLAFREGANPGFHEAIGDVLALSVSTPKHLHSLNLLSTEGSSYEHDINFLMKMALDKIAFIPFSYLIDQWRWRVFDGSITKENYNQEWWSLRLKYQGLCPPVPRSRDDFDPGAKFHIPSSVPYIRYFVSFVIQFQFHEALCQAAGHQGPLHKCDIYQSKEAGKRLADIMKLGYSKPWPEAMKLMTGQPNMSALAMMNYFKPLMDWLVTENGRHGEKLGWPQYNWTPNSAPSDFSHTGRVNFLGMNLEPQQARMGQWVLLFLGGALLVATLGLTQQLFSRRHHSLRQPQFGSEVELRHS
# Assay: Sulfate and chloride effects on ACE catalysed substrate hydrolysis
# Format: biochemical
# Conditions: 0.05M Hepes
smiles,measurement,setting,value
CC(C)C[C@H](NC(=O)[C@H](Cc1c[nH]cn1)NC(=O)CNC(=O)c1ccccc1)C(=O)O [HipHisLeu] (Bz-Gly-His-Leu-OH),"Reaction Velocity, Per Cent of Substrate Hydrolyzed in 10 minutes","pH 8.0, 0.0M NaCl, Na2 SO4 0 M",0 Per Cent
same,"Reaction Velocity, Per Cent of Substrate Hydrolyzed in 10 minutes","pH 8.0, 0.0M NaCl, Na2 SO4 0.1 M",0 Per Cent
same,"Reaction Velocity, Per Cent of Substrate Hydrolyzed in 10 minutes","pH 8.0, 0.0M NaCl, Na2 SO4 0.2 M",0 Per Cent
same,"Reaction Velocity, Per Cent of Substrate Hydrolyzed in 10 minutes","pH 8.0, 0.0M NaCl, Na2 SO4 0.3 M",0 Per Cent
same,"Reaction Velocity, Per Cent of Substrate Hydrolyzed in 10 minutes","pH 8.0, 0.0M NaCl, Na2 SO4 0.4 M",0.1 Per Cent
same,"Reaction Velocity, Per Cent of Substrate Hydrolyzed in 10 minutes","pH 8.0, 0.0M NaCl, Na2 SO4 0.5 M",0.1 Per Cent
same,"Reaction Velocity, Per Cent of Substrate Hydrolyzed in 10 minutes","pH 8.0, 0.0M NaCl, Na2 SO4 0.6 M",0.25 Per Cent
same,"Reaction Velocity, Per Cent of Substrate Hydrolyzed in 10 minutes","pH 8.0, 0.0M NaCl, Na2 SO4 0.7 M",0.25 Per Cent
same,"Reaction Velocity, Per Cent of Substrate Hydrolyzed in 10 minutes","pH 8.0, 0.0M NaCl, Na2 SO4 0.75 M",0.25 Per Cent
same,"Reaction Velocity, Per Cent of Substrate Hydrolyzed in 10 minutes","pH 8.0, 0.0M NaCl, Na2 SO4 0.8 M",0.25 Per Cent
same,"Reaction Velocity, Per Cent of Substrate Hydrolyzed in 10 minutes","pH 8.0, 0.0M NaCl, Na2 SO4 0.9 M",0.7 Per Cent
same,"Reaction Velocity, Per Cent of Substrate Hydrolyzed in 10 minutes","pH 8.0, 0.0M NaCl, Na2 SO4 1.2 M",3.9 Per Cent
same,"Reaction Velocity, Per Cent of Substrate Hydrolyzed in 10 minutes","pH 8.0, 0.1M NaCl, Na2 SO4 0 M",0.3 Per Cent
same,"Reaction Velocity, Per Cent of Substrate Hydrolyzed in 10 minutes","pH 8.0, 0.1M NaCl, Na2 SO4 0.4 M",4.1 Per Cent
same,"Reaction Velocity, Per Cent of Substrate Hydrolyzed in 10 minutes","pH 8.0, 0.1M NaCl, Na2 SO4 0.6 M",8.3 Per Cent
same,"Reaction Velocity, Per Cent of Substrate Hydrolyzed in 10 minutes","pH 8.0, 0.1M NaCl, Na2 SO4 0.75 M",12.05 Per Cent
same,"Reaction Velocity, Per Cent of Substrate Hydrolyzed in 10 minutes","pH 8.0, 0.1M NaCl, Na2 SO4 0.9 M",12.25 Per Cent
